The source of these data is ChEMBL document CHEMBL1133293, “Synthesis of a water-soluble prodrug of entacapone” (Bioorg Med Chem Lett, 2000).

Values after ≈ are worked out from the molar mass of the structure shown.

Data set [1] in a line: Half life period in rabbit liver homogenate. The data set is classed as ADME, tissue-based, Oryctolagus cuniculus.
Data set [2] can be described thus: Solubility at pH 1.2. The data set is classed as physicochemical. To be noted: buffer.
A short description of data set [3]: Solubility at pH 7.4. In kind it is physicochemical. To be noted: buffer.
A short description of data set [4]: Half life period t pH 7.4 at 37 degree Centigrade. The data set is classed as ADME.

`CCN(CC)C(=O)C(C#N)=Cc1cc(O)c(O)c([N+](=O)[O-])c1`: the half-life in data set [1] is 58 min.
Consider `CCN(CC)C(=O)/C(C#N)=C/c1cc(OP(=O)([O-])[O-])c([O-])c([N+](=O)[O-])c1.[Na+].[Na+].[Na+]`, for which the solubility in data set [2] and in data set [3] was 30 mg/mL each time. Also, the half-life in data set [4] was 92.8 days.
With `CCN(CC)C(=O)/C(C#N)=C/c1cc(O)c(O)c([N+](=O)[O-])c1` [ENTACAPONE], the half-life in data set [1] came out at 58 min. Also, the values for the solubility in data set [2] and in data set [3] were 0.017 mg/mL (≈ 55.7 µM) and 1.75 mg/mL (≈ 5730 µM), respectively.
